From patent US20250066383A1, “PDE 7 MODULATOR COMPOUNDS” (Omeros Corporation, priority 2023, published 2025) come the findings set out here.

What is called IC50 is the midpoint of a concentration-inhibition curve.

One test has as its target PDE7B (Homo sapiens (Human), UniProt Q9NP56). Nature of the test: PDE7B assay: inhibition of PDE7B hydrolysis of [3H]cAMP to [3H]AMP (scintillation proximity, yttrium silicate beads). The class given is biochemical. The note with it: 16 nM [3H]cAMP, 30° C., 20 minutes; read-out: PDE 7B IC50. As for the experimental part: (§1) PDE7A and PDE7B Assay. Compounds were tested for their activity by measuring the inhibition of PDE7A or PDE7B hydrolysis of [3H]cAMP to [3H]AMP. Generally, eight dilutions of compound were assayed in 50 mM Tris-HCl pH 7.5, 8.3 mM MgCl2, 0.5 mg/mL BSA, 1.7 mM EGTA, 16 nM [3H]cAMP, and 1% DMSO. PDE7A or PDE7B (typically 1-5 ng/mL) (BPS BioSciences, CA) is added to initiate the reaction. The reaction was incubated at 30° C. for 20 minutes. PDE7A and PDE7B hydrolysis was terminated by the addition of yttrium silicate beads (GE Healthcare, RPNQ0150) and counted on a Wallac Microbeta scintillation counter, 1-2 hours following the addition of the beads. Data was analyzed using XLfit […] from which ICso values were obtained.
(In a scintillation proximity assay essentially only radioactivity close to the scintillant gives light.)

Another test has as its target PDE7A (Homo sapiens (Human), UniProt Q13946). Nature of the test: PDE7A assay: inhibition of PDE7A hydrolysis of [3H]cAMP to [3H]AMP (scintillation proximity, yttrium silicate beads). Format: biochemical. Conditions: 16 nM [3H]cAMP, 30° C., 20 minutes; read-out: PDE 7A IC50. As for the experimental part:
as §1

Sequence of PDE7B (Q9NP56 whole entry): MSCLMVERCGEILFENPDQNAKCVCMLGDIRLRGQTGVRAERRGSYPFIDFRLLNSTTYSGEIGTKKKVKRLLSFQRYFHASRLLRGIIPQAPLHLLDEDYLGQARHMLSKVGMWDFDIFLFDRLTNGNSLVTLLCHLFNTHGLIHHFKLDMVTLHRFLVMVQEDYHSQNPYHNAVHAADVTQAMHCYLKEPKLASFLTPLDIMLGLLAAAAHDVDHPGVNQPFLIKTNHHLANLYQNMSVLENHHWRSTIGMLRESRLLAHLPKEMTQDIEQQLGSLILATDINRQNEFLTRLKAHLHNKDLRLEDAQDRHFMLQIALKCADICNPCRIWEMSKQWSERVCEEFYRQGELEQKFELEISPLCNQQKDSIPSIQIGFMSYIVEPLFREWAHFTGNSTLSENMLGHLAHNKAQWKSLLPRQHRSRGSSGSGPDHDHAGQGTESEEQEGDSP
Sequence of PDE7A (Q13946 whole entry): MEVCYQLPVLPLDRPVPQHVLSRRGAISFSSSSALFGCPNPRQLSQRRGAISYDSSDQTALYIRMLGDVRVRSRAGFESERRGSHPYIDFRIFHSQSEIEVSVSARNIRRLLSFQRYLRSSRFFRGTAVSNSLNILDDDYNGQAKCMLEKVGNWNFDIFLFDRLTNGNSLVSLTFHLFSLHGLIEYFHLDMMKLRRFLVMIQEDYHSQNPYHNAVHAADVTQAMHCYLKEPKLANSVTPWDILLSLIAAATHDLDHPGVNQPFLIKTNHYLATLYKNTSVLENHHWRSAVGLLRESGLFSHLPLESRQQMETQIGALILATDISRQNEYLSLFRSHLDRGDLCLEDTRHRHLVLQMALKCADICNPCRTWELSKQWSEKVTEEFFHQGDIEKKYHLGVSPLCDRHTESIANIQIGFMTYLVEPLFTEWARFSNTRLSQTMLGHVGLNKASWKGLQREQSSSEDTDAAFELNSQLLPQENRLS

Take `Cc1nn(CC(C)(C)C)c2sc(C(=O)Nc3cnc(N4CCOCC4)c(Cl)c3)cc12` [II-38, N-(5-chloro-6-morpholinopyridin-3-yl)-3-methyl-1-neopentyl-1H-thieno [2,3-c]pyrazole-5-carboxamide]: the IC50 at PDE7B was 0.5 to 2.5 µM; at PDE7A, 0.1 to 0.5 µM.

For the compound `Cc1nn(C2CCC(F)(F)CC2)c2sc(C(=O)N[C@H]3C[C@@H](N4CCC(F)(F)C4)C3)cc12` [II-39, 1-(4,4-difluorocyclo-hexyl)-N-((1s,3s)-3-(3,3-difluoropyrrol-idin-1-yl)cyclobutyl)-3-methyl-1H-thieno [2,3-c]pyrazole-5-carboxamide], the half-maximal inhibitory concentration (IC50) on PDE7B and on PDE7A was 0.03 to 0.1 µM throughout.

For `Cc1nn(CC(C)(C)C)c2sc(C(=O)Nc3ccc(N4CCOCC4)c(C#N)c3)cc12` [II-40, N-(3-cyano-4-mor-pholinophenyl)-3-methyl-1-neopentyl-1H-thieno[2,3-c]pyr-azole-5-carboxamide], the concentration for half-maximal inhibition (IC50) on PDE7B and on PDE7A was 0.1 to 0.5 µM in each case.

For the compound `Cc1nn(C2CCC(F)(F)CC2)c2sc(C(=O)N[C@H]3CC[C@H](N4CC(OC(F)F)C4)CC3)cc12` [II-41, 1-(4,4-difluorocyclo-hexyl)-N-((1r,4r)-4-(3-(difluorometh-oxy)azetidin-1-yl)-cyclohexyl)-3-methyl-1H-thieno [2,3-c]pyrazole-5-carboxamide], the values for the IC50 at PDE7B and at PDE7A were under 0.01 µM and 0.01 to 0.03 µM, respectively.

On to `Cc1nn(CC(C)(C)C)c2sc(C(=O)N[C@H]3CC[C@H](N4CC(OC(F)F)C4)CC3)cc12` [II-42, N-((1r,4r)-4-(3-(difluoromethoxy)-azetidin-1-yl)cyclo-hexyl)-3-methyl-1-neopentyl-1H-thieno [2,3-c]pyrazole-5-carboxamide], for which the IC50 on PDE7B and at PDE7A was under 0.01 µM each time.

With `Cc1nn(CC(C)C)c2sc(C(=O)N[C@H]3CC[C@H](N4CC(C#N)C4)CC3)cc12` [II-43, N-((1r,4r)-4-(3-cyanoazetidin-1-yl)-cyclohexyl)-1-iso-butyl-3-methyl-1H-thieno[2,3-c]pyrazole-5-carboxamide], the IC50 at PDE7B and on PDE7A was 0.01 to 0.03 µM each time.

Turning to `Cc1nn(CC(C)C)c2sc(C(=O)N[C@H]3CC[C@H](N4CC(OC(F)F)C4)CC3)cc12` [II-44, N-((1r,4r)-4-(3-(difluoromethoxy)-azetidin-1-yl)cyclo-hexyl)-1-isobutyl-3-methyl-1H-thieno [2,3-c]pyrazole-5-carboxamide], the IC50 at PDE7B was 0.1 to 0.5 µM; at PDE7A, 0.03 to 0.1 µM.

`COC1CN([C@H]2CC[C@H](NC(=O)c3cc4c(C)nn(CC(C)(C)C)c4s3)CC2)C1` [II-45, N-((1r,4r)-4-(3-methoxyazetidin-1-yl)cyclohexyl)-3-methyl-1-neopentyl-1H-thieno[2,3-c]pyr-azole-5-carboxamide]: the figures for the half-maximal inhibitory concentration (IC50) on PDE7B and on PDE7A were 0.01 to 0.03 µM and under 0.01 µM, respectively.
